PubChem BioAssay AID652146 (Broad Institute, 2013)

Biological target: Protein disulfide-isomerase (Homo sapiens) (UniProt P07237)
Test: inhibition of PDI-mediated insulin reduction – biochemical, turbidity, dry powder samples, set 2, confirmation (AID 652146)
Conditions: plate reader

Chain of Protein disulfide-isomerase (Homo sapiens) (P07237 whole entry, looked up): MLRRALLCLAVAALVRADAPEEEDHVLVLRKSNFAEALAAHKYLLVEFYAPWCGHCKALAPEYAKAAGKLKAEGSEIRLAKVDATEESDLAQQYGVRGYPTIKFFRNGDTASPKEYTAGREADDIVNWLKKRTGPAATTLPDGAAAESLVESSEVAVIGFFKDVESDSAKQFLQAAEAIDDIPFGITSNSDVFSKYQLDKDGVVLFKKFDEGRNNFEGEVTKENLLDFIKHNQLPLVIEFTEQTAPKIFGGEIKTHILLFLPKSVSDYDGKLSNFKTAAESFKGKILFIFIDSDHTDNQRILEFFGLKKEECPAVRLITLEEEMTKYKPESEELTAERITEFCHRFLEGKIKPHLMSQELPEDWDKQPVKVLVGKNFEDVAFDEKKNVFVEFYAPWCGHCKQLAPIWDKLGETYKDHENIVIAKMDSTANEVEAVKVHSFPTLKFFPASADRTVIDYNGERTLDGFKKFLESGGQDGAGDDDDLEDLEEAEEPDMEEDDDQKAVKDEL

Molecule CCOC(=O)C1(CCOc2ccccc2)CCN(Cc2ccc(O)c(Cl)c2)CC1 has an AC50 of 100 nM.
